Literature values in US12471595B2, “Liquid pesticidal composition” (SUMITOMO CHEMICAL COMPANY, LIMITED, priority 2019, dated 2025).

Tests used:
[1] = pH7
[2] = 1-octanol/water

SMILES | Water solubility at 25° C. [1] | log P at 25° C. [2]
CCOC(=O)COc1ncccc1Oc1cc(-n2c(=O)cc(C(F)(F)F)n(C)c2=O)c(F)cc1Cl [Compound A, Ethyl 2-[(3-{2-chloro-4-fluoro-5-[3-methyl-4-(trifluoromethyl)-2,6-dioxo-1,2,3,6-tetrahydropyrimidin-1(2H)-yl]phenoxy}pyridin-2-yl)oxy]acetate] | 2.0 mass ppm | 3.5
CC(O)(Cn1cncn1)c1ccc(Oc2ccc(Cl)cc2)cc1C(F)(F)F (stereo not shown) [Mefentrifluconazole] | 0.81 mass ppm | 3.4
CON(C(=O)c1cn(C)nc1C(F)F)C(C)Cc1c(Cl)cc(Cl)cc1Cl (stereo not shown) [Pydiflumetofen] | 1.5 mass ppm | 3.8
COC(=O)N(OC)c1ccccc1COc1ccn(-c2ccc(Cl)cc2)n1 [Pyraclostrobin] | 1.9 mass ppm | 4.0
Cc1nnc(Cl)c(-c2c(F)cccc2F)c1-c1ccccc1 [Pyridachlometyl] | 0.6 mass ppm | 4.1
